Like-named read-outs stand apart in the source and are kept apart here.
Assays:
[1] = target: human Arginine Vasopressin Receptor 1a (AVPR1a) (Homo sapiens, UniProt P37288); experiment: cell-based
OT receptor = target: T1, OT receptor (Homo sapiens, UniProt P30559); experiment: OT receptor binding (primary binding at 10 μM and Ki); conditions: for inhibition at 10 µM: read-out: OT binding, mean % inhibition
T1 sequence (P30559 1-389): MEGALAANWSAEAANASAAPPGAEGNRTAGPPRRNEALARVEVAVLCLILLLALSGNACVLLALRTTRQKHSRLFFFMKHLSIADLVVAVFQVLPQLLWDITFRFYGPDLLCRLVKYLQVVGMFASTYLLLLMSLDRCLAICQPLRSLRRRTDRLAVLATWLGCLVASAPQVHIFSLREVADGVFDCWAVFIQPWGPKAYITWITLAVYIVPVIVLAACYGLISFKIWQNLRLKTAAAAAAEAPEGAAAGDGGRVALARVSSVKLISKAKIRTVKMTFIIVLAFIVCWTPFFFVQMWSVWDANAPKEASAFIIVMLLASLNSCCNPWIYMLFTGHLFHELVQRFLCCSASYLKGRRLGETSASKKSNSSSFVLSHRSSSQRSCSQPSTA
Procedure: (§1) The default concentration for primary binding experiments was 10 μM.
(§2) See Examples for further details.

human V1a receptor = target: T2, human V1a receptor (Homo sapiens, UniProt P37288); experiment: Vasopressin V1a receptor binding assay (3H-AVP competition, CHO cells); conditions: read-out: V1A binding, mean % inhibition
T2 construct: expressed in transfected cells; host or cells: CHO cells (G418-selected hV1a cell line)
Procedure: (§3) Data represent Ki values (nM) or mean % inhibition (indicated as %) for exemplary compounds of formula (I) tested versus receptor subtypes.
as §1
Vasopressin V1a Receptor Binding Assay.
A cell line expressing the human Via receptor in CHO cells is used. The hV1a cDNA sequence is described by Thibonnier et al., (1994), and the expression method is the same as described by Morel et al. (1992). The hV1a cell line is grown in alpha-MEM with 10% fetal bovine serum and 250 ug/ml G418 (Gibco, Grand Island, N.Y., USA). For competitive binding assay, hV1a cells are plated into 6-well culture plate at 1:10 dilution from a confluency flask, and maintained in culture for at least two days. Culture medium is then removed, cells washed with 2 ml binding buffer (35 mM Hepes, 0.25% BSA, 1× DMEM, PH=7.0). To each well, 990 μl binding buffer containing 1 nM 3H-AVP is added, followed by 10 μl series diluted Example compounds dissolved in DMSO. All incubations are done in triplicate and dose-inhibition curves consisting of total binding (DMSO) and 5 concentrations (0.1, 1.0, 10, 100, and 1000 nM) of test agents encompassing the IC50. 100 nM cold AVP (Sigma) is used to assess non-specific binding. Cells are incubated for 45 minutes at 37° C., assay mixture is removed and each well is washed three times with PBS (pH=7.4). 1 ml 2% SDS was added per well, plates were let sit for 30 minutes. The whole content of a well is transferred to a scintillation vial. Each well is rinsed with 0.5 ml PBS which is then added to the corresponding vial. Scintillation fluid (Ecoscint) is then added at 3 ml per vial. Samples are counted in a liquid scintillation counter (Beckman LS3801). IC50 values are calculated by Prism Curve fitting software.

V2 receptor = V2 receptor (Homo sapiens, UniProt P30518); experiment: V2 receptor binding (primary binding at 10 μM and Ki); conditions: at 10 μM; read-out: V2 binding, mean % inhibition
Procedure: as §3, §1, §2

Chain of human Arginine Vasopressin Receptor 1a (AVPR1a) (P37288 whole entry): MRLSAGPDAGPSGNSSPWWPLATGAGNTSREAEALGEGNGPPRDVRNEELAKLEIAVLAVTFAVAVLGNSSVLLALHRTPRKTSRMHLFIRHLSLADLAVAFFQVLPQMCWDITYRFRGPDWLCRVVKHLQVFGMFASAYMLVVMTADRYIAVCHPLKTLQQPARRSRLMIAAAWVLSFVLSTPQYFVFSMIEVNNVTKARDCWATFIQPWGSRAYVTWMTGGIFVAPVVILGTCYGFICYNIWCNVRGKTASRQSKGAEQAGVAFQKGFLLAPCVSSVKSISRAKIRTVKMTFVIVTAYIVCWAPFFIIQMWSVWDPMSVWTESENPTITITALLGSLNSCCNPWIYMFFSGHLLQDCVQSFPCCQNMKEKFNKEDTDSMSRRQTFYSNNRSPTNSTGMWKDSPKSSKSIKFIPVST
T2 sequence (P37288 whole entry): as above
Chain of V2 receptor (P30518 whole entry): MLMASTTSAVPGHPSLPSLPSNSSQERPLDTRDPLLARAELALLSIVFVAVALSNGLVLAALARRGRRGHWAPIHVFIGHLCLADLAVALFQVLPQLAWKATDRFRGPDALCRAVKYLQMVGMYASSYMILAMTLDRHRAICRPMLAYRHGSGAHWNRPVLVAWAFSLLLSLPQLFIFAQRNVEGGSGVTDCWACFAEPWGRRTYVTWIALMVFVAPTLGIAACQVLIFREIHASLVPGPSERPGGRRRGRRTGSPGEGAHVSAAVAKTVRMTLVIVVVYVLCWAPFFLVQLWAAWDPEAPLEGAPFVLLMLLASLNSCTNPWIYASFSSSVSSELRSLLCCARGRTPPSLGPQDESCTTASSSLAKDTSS

Row | IC50 ([1]; read-out: V1a-R IC50) | Structure (SMILES) | also measured
1 | 5.81 µM | O=C(c1ccncc1)N1CCC(C(=O)N2CCCCc3cc(Cl)ccc32)CC1 [Compound 93] | 
2 | 0.051 µM | Cc1ccnc(N2CCC(C(=O)N(CC3CC3)c3ccc(Cl)cc3)CC2)n1 [Compound 169] | 
3 | 1.6 µM | O=C(c1cc(F)cc(F)c1)N1CCC(C(=O)N2CCCCc3cc(Cl)ccc32)CC1 [Compound 116] | 
4 |  | CCN(C(=O)N1CCN(Cc2ccccc2)CC1)c1ccc(OC)cc1 [Compound 8] | Ki (OT receptor; read-out: OT binding Ki): 1.18 µM; inhibition at 10 µM (human V1a receptor): 35.1%
5 | 15.1 µM | Cc1noc(C)c1C(=O)N1CCC(C(=O)N2CCCCc3cc(Cl)ccc32)CC1 [Compound 80] | 
6 | 0.267 µM | O=C(N1CCN(c2nccs2)CC1)N1CCCCc2cc(Cl)ccc21 [Compound 127] | 
7 | 0.026 µM | Cc1cc(C)nc(N2CCC(C(=O)N3CCCC(O)c4cc(Cl)ccc43)CC2)n1 (centres unmarked) [Compound 195] | 
8 | 0.015 µM | O=C(C1CCN(c2ccccn2)CC1)N(CC1CC1)c1ccc(Cl)cc1 [Compound 154] | 
9 | 0.045 µM | O=C(C1CCN(c2cnccn2)CC1)N(CC1CC1)c1ccc(Cl)cc1 [Compound 152] | 
10 | 0.027 µM | O=C(N1CCN(c2ccccc2)CC1)N1CCCCc2cc(Cl)ccc21 [Compound 128] | 
11 | 0.007 µM | Cc1cccnc1N1CCC(C(=O)N(CC2CC2)c2ccc(Cl)cc2)CC1 [Compound 147] | 
12 | 0.517 µM | Cc1cc(C)nc(N2CCC(C(=O)N(CC3(C)COC3)c3ccc(Cl)cc3)CC2)n1 [Compound 227] | 
13 | 0.082 µM | O=C(C1CCN(c2nccc(C(F)(F)F)n2)CC1)N1CCCCc2cc(Cl)ccc21 [Compound 174] | 
14 | 0.05 µM | Cc1cc(Cl)cnc1N1CCC(C(=O)N(CC2CC2)c2ccc(Cl)cc2)CC1 [Compound 217] | 
15 | 0.067 µM | N#Cc1cccnc1N1CCC(C(=O)N(CC2CC2)c2ccc(Cl)cc2)CC1 [Compound 142] | 
16 | 0.066 µM | O=C(C1CCN(c2ncnc3cc(Cl)ccc23)CC1)N1CCCCc2cc(Cl)ccc21 [Compound 187] | 
17 |  | COc1ccc(NC(=O)N2CCN(c3ccccc3C)CC2)cc1 [Compound 1] | inhibition at 10 µM (OT receptor): 12.8%; inhibition at 10 µM (human V1a receptor): 34.1%
18 | 0.089 µM | O=C(C1CCN(c2ncc(C(F)(F)F)cn2)CC1)N1CCCCc2cc(Cl)ccc21 [Compound 210] | 
19 | 4.94 µM | CCC(CC)N(C(=O)C1CCN(c2nc(C)cc(C)n2)CC1)c1ccc(Cl)cc1 [Compound 228] | 
20 | 0.227 µM | CCc1cnc(N2CCC(C(=O)N(CC3CC3)c3ccc(Cl)cc3)CC2)nc1 [Compound 188] | 
21 |  | O=C(C1CCN(c2ccc(Cl)cn2)CC1)N(CC1CC1)c1ccc(Cl)cc1 [Compound 141] | IC50 [1]: 0.04 µM
22 |  | CCN(C(=O)N1CCN(C(=O)c2ccccc2)CC1)c1ccc(OC)cc1 [Compound 9] | inhibition at 10 µM (OT receptor): 22.3%
23 | 0.8 µM | N#Cc1ccc(N2CCC(C(=O)N(CC3CC3)c3ccc(Cl)cc3)CC2)nc1 [Compound 153] | 
24 |  | Cc1cc(C(=O)N(CC2CC2)CC2CCCO2)ccc1CNC(=O)N1CCN(Cc2cc(O)cc(O)c2)CC1 (centres unmarked) [Compound 13] | inhibition at 10 µM (OT receptor): 16.1%; inhibition at 10 µM (V2 receptor): 13.6%
25 | 9.48 µM | N#Cc1ccc(C(=O)N2CCC(C(=O)N3CCCCc4cc(Cl)ccc43)CC2)c(F)c1 [Compound 114] | 
26 | 0.35 µM | O=C(C1CCN(c2nc3ccc(Cl)cc3o2)CC1)N(CC1CC1)c1ccc(Cl)cc1 [Compound 207] | 
27 | 0.249 µM | O=C(c1c[nH]c2ccccc12)N1CCC(C(=O)N2CCCCc3cc(Cl)ccc32)CC1 [Compound 120] | 
28 | 0.035 µM | O=C(N1CCN(c2ccccc2Cl)CC1)N1CCCCc2cc(Cl)ccc21 [Compound 139] | 
29 | 0.049 µM | CCc1cnc(N2CCC(C(=O)N3CCCCc4cc(Cl)ccc43)CC2)nc1 [Compound 182] | 

From patent publication US20150376198A1, “MODULATORS OF VASOPRESSIN RECEPTORS WITH THERAPEUTIC POTENTIAL” (priority 2013, published 2015)
